The nature of data set [1]: Accelerated stability of 5 mg/mL levothyroxine in (acidified) DMSO: discoloration and RP-HPLC.
Description: To attempt to overcome these discoloration and degradation problems, levothyroxine solutions were prepared with either the free acid or the sodium salt of levothyroxine dissolved in acidified DMSO, at a levothyroxine sodium concentration of 5 mg/mL. To prepare acidified DMSO solvents, DMSO was acidified with 0-10 mM H2SO4 (from a 1.0 N H2SO4 stock solution), and samples were stored in 2 mL glass vials (0.5 mL fill volume per vial) and stored at 45° C. upright for 9 days for an accelerated stability analysis without any secondary packaging (e.g., foil pouch). Samples were then photographed (to examine discoloration) and examined via reverse phase HPLC (to examine levothyroxine chemical stability), comparing day 0 samples to day 9 samples (vs. a sample of each formulation that was frozen and held at −20° C. as a “time 0” control).
To determine if the discoloration observed with these formulations correlated with levothyroxine chemical degradation, samples of each vial were assessed via reverse phase HPLC (RP-HPLC).
The conditions of data set [2]: cited from earlier work.
The nature of data set [3]: Storage stability of levothyroxine formulations in acidified DMSO (RP-HPLC T4/T3). The note with it: 10 mg/mL in DMSO. It counts as physicochemical. As for the experimental part:
Based on the results shown above, formulations of levothyroxine sodium were prepared at an acid concentration that promoted chemical stability and a moisture content of at least 4% (w/w). […] The overall moisture content of the formulation was ~5% when prepared using 1.0 N H2SO4. The moisture content of this formulation was due almost entirely to the added sulfuric acid (with a minor contribution from the trehalose dihydrate), which at 26 mM (from a 1.0 N (0.5 M) stock solution) results in a moisture content~5% (w/w). When prepared using concentrated acid (e.g., 10 N), the overall moisture content of the formulation could be reduced to about ~1% without any significant impact on storage stability.
An example of the stability that can be achieved using this formulation approach at multiple temperatures for up to 6 months is shown in Table 1, which represents the purity of T4 (levothyroxine sodium) in the 10 mg/mL, 26-28 mM acid DMSO formulations described above, over time at various storage temperatures. Results shown are measurements of T4 vs. T3 (triiodothyronine, the main degradation product of T4), determined as described above via RP-HPLC. In this table, the higher the percentage of T4 and the lower the percentage of T3, the less degradation observed in the levothyroxine formulations over time.

Data set [4] can be described thus: Solubility of levothyroxine sodium in DMSO. It counts as physicochemical. The note with it: organic solvent or mixture. An excerpt: However, direct dissolution of levothyroxine sodium in DMSO (with no added excipients) caused rapid visual discoloration and chemical degradation (where the extent of discoloration generally correlates with degradation). […] Additionally, the chemical degradation appeared to be associated with the discoloration of the solution that was observed.

Bounds are passed on as bounds.

`N[C@@H](Cc1cc(I)c(Oc2cc(I)c(O)c(I)c2)c(I)c1)C(=O)O` [levothyroxine free acid]: in data set [1] (5 mg/mL in DMSO, 0-2 mM H2SO4, 9 days at 45° C.), the “degradation by RP-HPLC” value was “extensive degradation”. Further, the discoloration entry in data set [1] (5 mg/mL in DMSO, 0-10 mM H2SO4, day 0) is on record as “did not show significant discoloration”. Besides, in data set [1] (5 mg/mL in DMSO, all concentrations of acid, 9 days at 45° C.), the “discoloration compared to levothyroxine sodium salt” value was “lower amount of discoloration”. For the same compound, in data set [1] (5 mg/mL solution in DMSO, accelerated stability testing), the “sulfuric acid concentration necessary to significantly enhance chemical stability” value is ~ 10 mM.

In the case of `N[C@@H](Cc1cc(I)c(Oc2cc(I)c(O)c(I)c2)c(I)c1)C(=O)O` [levothyroxine], the solubility in water in data set [2] is reported as at most 0.1 mg/mL.

`N[C@@H](Cc1cc(I)c(Oc2cc(I)c(O)c(I)c2)c(I)c1)C(=O)O` [levothyroxine sodium]: the “chemical stability (T4 peak purity) vs acid concentration” value in data set [3] (<26 mM sulfuric acid) is listed as “extensive chemical degradation”; in data set [3] (above approximate 26 mM acid), “chemical stability essentially plateaus”. Moreover, the solubility in data set [4] was at least 30 mg/mL. The discoloration result was “no significant discoloration” in data set [1] (5 mg/mL in DMSO, 10 mM H2SO4, 9 days at 45° C.) and “degradation-associated discoloration fairly quickly” in data set [1] (5 mg/mL in DMSO, H2SO4 below 4 mM, day 0).

A word on the solubility: it is how much of the substance goes into solution per volume.

Values taken from patent US12691089B2, “Stable levothyroxine compositions in aprotic polar solvents” (Xeris Pharmaceuticals, Inc., priority 2022, dated 2026).
